Test results published in patent publication US5349063A, “Pancreatic imaging agents” (priority 1993, dated 1994).

Legend:
[1] = Pancreas uptake and pancreas to liver ratio in Balb/c mice (radioiodine biodistribution); format: in vivo; conditions: for P/L (percent dose in pancreas / percent dose in liver) / Pancreas uptake (mean percent administered dose per organ): I-125 label, 20 μg i.v., male Balb/c mice, mean ± standard deviation; for pancreas/liver ratios compared with HIPDM: all time periods from 30 minutes to 24 hours
Protocol: The pancreatic uptake and pancreas/liver ratio of I-125 ERC 9 (prepared as in Examples 1 and 2) and I-125-HIPDM were compared in mice. Male Balb/c mice were injected via the tail vein with I-125 ERC 9 or I-125 HIPDM (20 μg, 0.01 MBq, in 0.1 ml). At specific time periods from 5 minutes to 24 hours after administration, six mice from each group were killed by CO2 asphyxiation. Blood samples were taken and various organs (including the pancreas and liver) were removed. The radioiodine uptake in various organs was determined by counting in a gamma spectrometric detector. The amount of radioactivity in each organ or tissue was compared to that in a standard of the injected dose. The percent uptake was calculated for each organ of each animal. The pancreas to liver ratio was calculated by dividing the percent uptake in the pancreas by the percent uptake in the liver. The mean uptake in the organs and the mean pancreas/liver ratio was calculated for the animals at each time period.
The pancreatic uptake and pancreas/liver ratios of I-125 ERC 46 and I-125 HIPDM were compared in Balb/c mice as described in Example 6.
The pancreas uptake and pancreas/liver ratios of I-125 ERC 90 and I-125 HIPDM were compared in Balb/c mice as described in Example 6.
The pancreas uptakes and pancreas/liver ratios of I-125 ERC 94 and I-125 HIPDM were compared in Balb/c mice as described in Example 6.

[2] = rats and mice; Yamamoto et al.; cited from earlier work
[3] = cited from earlier work
[4] = Toxicity in mice; format: in vivo, Balb/c mice
Protocol: It was assumed that the maximum human dose of ERC 9 would be 2 mg per 50 kg (or […]) body weight. Mouse studies were done at a rate of 500 times the maximum human dose on a weight basis. Five Balb/c male and five Balb/c female mice were injected via the tail vein with 0,005 ml per gram body weight of a solution of ERC 9 in water (4 mg per ml) on each of three occasions one day apart. The animals were maintained for 30 days.

[5] = Human radiation dosimetry of I-123 ERC 9 estimated from tissue distribution in mice (MIRD); design: species or system human (from Balb/c mouse data); conditions: MIRD calculation from mouse tissue distribution
Protocol: The human radiation dose from I-123 ERC 9 was estimated from tissue distribution data in mice.
Male Balb/c mice were injected via the tail vein with I-125 ERC 9 (20 μg, 0.01 MBq, in 0.1 ml). At specific time periods from 5 minutes to 24 hours after administration, six mice were killed by CO2 asphyxiation. Blood samples were taken and various organs were removed. The radioiodine uptake in various organs and tissues was determined by counting in a gamma spectrometric detector. The amount of radioactivity in each organ or tissue was compared to that in a standard of the injected dose. The percent uptake was calculated for each organ of each animal. The mean percent uptake in the organs was calculated for the animals at each time period.
The mean uptakes for each of the organs and tissues were plotted versus time on semilogarithmic paper. From these plots, the uptake and clearance half times for each of the organs and tissues were calculated.
Using these values and the MIRD (Society of Nuclear Medicine) method of dosimetry calculations, the human radiation doses from I-123 were calculated.

[6] = Pancreatic imaging in human volunteers (planar and SPECT gamma camera); format: in vivo
Protocol: Imaging studies have been done in two human volunteers using I-123 ERC 9.
I-123 ERC 9 (185 MBq, 2 mg), prepared as in Example 2, was injected intravenously into the two volunteers. Using a gamma camera with SPECT (Single Photon Emission Computed Tomography) capability, planar images were obtained at 30 minutes, 1.5 hours, 3 hours and 24 hours after injection. SPECT images were obtained at 3-4 hours after injection.

[7] = cited from earlier work; remark: listed apart in the source
[8] = 4 and 24 hours after administration
[9] = 30 minutes after administration
[10] = human clinical studies, Yamamoto et al.
[11] = 500 times maximum human dose, i.v., three occasions one day apart, maintained 30 days
[12] = I-123 ERC 9, 185 MBq, 2 mg i.v.
[13] = planar and SPECT images, 3-4 hours

| SMILES | pancreas uptake compared with HIPDM [1, 8] | P/L (percent dose in pancreas / percent dose in liver) ([1]; 5 minutes after administration) | P/L (percent dose in pancreas / percent dose in liver) [1, 9] | P/L (percent dose in pancreas / percent dose in liver) ([1]; 1 hour after administration) | P/L (percent dose in pancreas / percent dose in liver) ([1]; 4 hours after administration) | P/L (percent dose in pancreas / percent dose in liver) ([1]; 24 hours after administration) | pancreas/liver ratios compared with HIPDM [1] | pancreas uptake compared with HIPDM ([1]; early time periods) | Pancreas uptake (mean percent administered dose per organ) ([1]; 5 minutes after administration) | Pancreas uptake (mean percent administered dose per organ) [1, 9] | Pancreas uptake (mean percent administered dose per organ) ([1]; 1 hour after administration) | Pancreas uptake (mean percent administered dose per organ) ([1]; 4 hours after administration) | Pancreas uptake (mean percent administered dose per organ) ([1]; 24 hours after administration) | other results |
| --- | --- | --- | --- | --- | --- | --- | --- | --- | --- | --- | --- | --- | --- | --- |
| Cc1cc([125I])cc(CN(C)CCCN2CCOCC2)c1O [ERC 9, N[3(4-morpholino)propyl]-N-methyl-2-hydroxy-3-methyl-5-iodobenzylamine] |  | 0.40 ± 0.10 | 0.61 ± 0.05 | 0.66 ± 0.14 | 2.02 ± 0.67 | 2.54 ± 0.34 |  |  | 2.08 ± 0.90 percent administered dose per organ | 4.52 ± 0.75 percent administered dose per organ | 4.79 ± 0.70 percent administered dose per organ | 6.60 ± 1.84 percent administered dose per organ | 3.30 ± 0.53 percent administered dose per organ | histological examination of various organs and tissues [4, 11]: no changes that could be attributed to chemical toxicity; immediate or delayed toxicity [4, 11]: no indication of immediate or delayed toxicity; chemical toxicity ([4]; animal studies): low chemical toxicity; mean pancreas/liver ratio compared with HIPDM ([1]; at all time intervals): greater than that for HIPDM; human radiation dose to the pancreas [5]: approximately 15.5 mGy per 111 MBq; visualization of the pancreas ([6]; 24 hours after injection): less than optimal although still present; quality of pancreatic images ([6]; FIGS. 2 and 3, human volunteers): High quality pancreatic images; time at which uptake of the radiotracer was seen [6, 12]: ≤ 30 min; time of optimum pancreatic uptake and pancreas/liver ratio [6, 12]: 3 to 4 h; accumulation of radiolabel in pancreas [6, 13]: high degree of accumulation of radiolabel in normal human pancreas; discrimination of pancreas from other abdominal organs [6, 13]: good discrimination of pancreas from other abdominal organs |
| Cc1cc([125I])cc(CN(C)CCCN2CCCCC2)c1O [ERC 90, N[3(1-piperidino)propyl]-N-methyl-2-hydroxy-3-methyl-5-iodobenzylamine] | higher pancreas uptakes than did HIPDM | 0.22 ± 0.04 | 0.50 ± 0.11 | 0.80 ± 0.18 | 2.12 ± 0.35 | 6.70 ± 1.42 | significantly higher | lower | 1.32 ± 0.34 percent administered dose per | 2.73 ± 0.59 percent administered dose per | 3.62 ± 0.84 percent administered dose per | 5.35 ± 0.88 percent administered dose per | 5.59 ± 0.60 percent administered dose per |  |
| C[75Se]CCC(N)C(=O)O (stereo not shown) [Se-75 selenomethionine] |  |  |  |  |  |  |  |  |  |  |  |  |  | pancreatic visualisation ([7]; in vivo): inconsistency of pancreatic visualisation; patient radiation dose ([7]; selenium-75): high patient radiation dose |

Second part, led by results:

| pancreas uptake compared with HIPDM [1, 8] | P/L (percent dose in pancreas / percent dose in liver) ([1]; 5 minutes after administration) | P/L (percent dose in pancreas / percent dose in liver) [1, 9] | P/L (percent dose in pancreas / percent dose in liver) ([1]; 1 hour after administration) | P/L (percent dose in pancreas / percent dose in liver) ([1]; 4 hours after administration) | P/L (percent dose in pancreas / percent dose in liver) ([1]; 24 hours after administration) | pancreas/liver ratios compared with HIPDM [1] | pancreas uptake compared with HIPDM ([1]; early time periods) | SMILES | Pancreas uptake (mean percent administered dose per organ) ([1]; 5 minutes after administration) | Pancreas uptake (mean percent administered dose per organ) [1, 9] | Pancreas uptake (mean percent administered dose per organ) ([1]; 1 hour after administration) | Pancreas uptake (mean percent administered dose per organ) ([1]; 4 hours after administration) | Pancreas uptake (mean percent administered dose per organ) ([1]; 24 hours after administration) | other results |
| --- | --- | --- | --- | --- | --- | --- | --- | --- | --- | --- | --- | --- | --- | --- |
| higher pancreas uptake than did HIPDM | 0.22 ± 0.04 | 0.54 ± 0.09 | 0.78 ± 0.20 | 2.11 ± 0.32 | 7.47 ± 1.40 | significantly higher | lower | Cc1cc([125I])cc(CN(C)CCCN2CCCC2)c1O [ERC 46, N[3(1-Pyrrolidino)propyl]-N-methyl-2-hydroxy-3-methyl-5-iodobenzylamine] | 1.34 ± 0.32 percent administered dose per | 4.14 ± 0.68 percent administered dose per | 3.74 ± 0.69 percent administered dose per | 5.95 ± 0.78 percent administered dose per | 4.91 ± 0.43 percent administered dose per |  |
|  | 0.21 ± 0.03 | 0.32 ± 0.04 | 0.46 ± 0.06 | 0.95 ± 0.14 | 1.18 ± 0.47 |  |  | Cc1cc([125I])cc(CN(C)CCCN(C)C)c1O [HIPDM, N,N,N'-trimethyl-N'[2-hydroxy-3-methyl-5-iodobenzyl]-1,3-propanediamine, reference compound] |  |  |  |  |  | localisation in the pancreas [2]: some localisation of HIPDM in the pancreas; differentiation between pancreatic and liver retention [3, 10]: difficult; pancreas/liver ratios [3, 10]: not optimal for clinical use; suitability for clinical use ([3]; human): unsatisfactory for clinical use |
|  | 0.22 ± 0.04 | 0.61 ± 0.06 | 0.67 ± 0.19 | 1.61 ± 0.26 | 4.03 ± 1.76 | significantly higher |  | CCN(CC)CCCN(C)Cc1cc([125I])cc(C)c1O [ERC 94, N[3(diethylamino)propyl]-N-methyl-2-hydroxy-3-methyl-5-iodobenzylamine] | 1.56 ± 0.26 percent administered dose per | 2.86 ± 0.48 percent administered dose per | 3.45 ± 0.90 percent administered dose per | 4.65 ± 0.67 percent administered dose per | 3.76 ± 1.62 percent administered dose per | pancreas uptakes compared with HIPDM ([1]; all time periods studied except 24 hours): lower than those of HIPDM |
